Test results published in publication PMC4434089 (Biotechnology, Biotechnological Equipment, 2014).
Read-outs that look alike come from different tables or passages of the source. Marks after values point to notes of the source that are not given here.

Tests used:
[1] = test system: Aβ; settings: SPR, cited from earlier work
From the text: This was further supported by a recent SPR-based Aβ study that determined a ka of 0.01 complexes per second for Aβ association following first-order kinetics, whilst the kd wa ...

[2] = test system: Aβ; settings: cited from earlier work
From the text: According to a model developed by Petkova et al.,[81] the 12-21 and 30-40 regions of the Aβ peptide form the β-she ...

[3] = test system: full length amylin; design: method as in 2 sources, one per row (each row's own in cited_ref): ref 58 = [58]; PMID 14565847; doi:10.1042/BJ20030852; Jaikaran E Nilsson MR Clark A Biochem J. 2004 377 709 716 14565847 10.1042/BJ20030852 PMC1223903 ||| ref 68, 93 = [68]; PMID 12054816; doi:10.1016/S0022-2836(02)00164-X; Scrocchi LA Chen Y Waschuk S Wang F Cheung S Darabie AA McLaurin J Fraser PE J Mol Biol. 2002 318 697 706 12054816 10.1016/S0022-2836(02)00164-X || [93]; PMID 12648568; doi:10.1016/s1047-8477(02)00630-5; Scrocchi LA Ha K Chen Y Wu L Wang F Fraser PE J Struct Biol. 2003 141 218 227 http://dx.doi.org/10.1016/s1047-8477(02)00630-5 12648568 10.1016/s1047-8477(02)00630-5; settings: cited from earlier work
[4] = test system: amylin; experiment: NTA of amylin aggregation, alone or with amylin derivatives; format: biochemical, human
Experimental: NTA measurements were performed with a NanoSight LM20 instrument (NanoSight, United Kingdom) equipped with a 640 nm laser and a temperature controlled sample chamber. […] The sample temperature was maintained at 37 °C for the entire duration of the experiment. These experimental conditions were similar to that used for a previously reported cytotoxicity experiment,[73] thus allowing correlation of results obtained from the two techniques. […] Once again, samples were maintained at 37 °C and 60 s video footage were recorded every 10 min for the first hour and then at 24 h. All videos were captured with the single shutter and gain modes. Analysis was performed using NanoSight NTA version 2.2 software with a viscosity setting of 0.70.

[5] = test system: amylin-mediated cytotoxicity; design: method as in PMID 20093026; settings: cited from earlier work
[6] = test system: sensor chip-bound biotinylated amylin; design: method as in PMID 14565847; settings: insulin over sensor chip-bound biotinylated amylin; cited from earlier work

Aβ1–40: amyloid beta; SPR-derived kinetics were generated using the 1–40 form of Aβ
Aβ association rate ([1]; conditions similar to present study): 0.01 complexes per second
Aβ dissociation kd ([1]; global fit, first-order kinetic model): 0.00223 s⁻¹
Aβ dissociation kd ([1]; printed spread ± 1.3 × 10^−4 s^−1): 0.00092 s⁻¹
Aβ dissociation time ([1]; ref 39 (by order of citation)): 7.5 min
Aβ dissociation time ([1]; ref 80 (by order of citation)): 18 min
aggregation rate compared with 1–42 form of Aβ [2]: aggregate much more slowly than the 1–42 form of Aβ

NFGAIL [n4]
fibril formation of full length amylin in presence of derivative [3]: fibril formation of full length amylin was enhanced
implied effect on fibrillogenesis of amylin ([4]; NTA compared with previously published reports): increase fibrillogenesis of amylin to an aggregate that is larger than 1000 nm
Concentration of aggregates 100–150 nm, 10 min ([4]; NTA, 10 min, 37 °C, amylin 50 μmol L^−1 alone (A) or with 250 μmol L^−1 derivative, 10 mmol L^−1 sodium phosphate, 50 mmol L^−1 NaCl, pH 7.4, duplicate, p < 0.05 less than A: n1, n5, m5): 3.8 ×10^7 aggregates/mL
Concentration of aggregates 200–300 nm, 10 min ([4]; NTA, 10 min, 37 °C, amylin 50 μmol L^−1 alone (A) or with 250 μmol L^−1 derivative, pH 7.4, duplicate, p < 0.05 less than A: n1, n3, n5, m1, m2, m3, m4, m5): 5.1 ×10^7 aggregates/mL
Concentration of aggregates 150–200 nm, 10 min ([4]; NTA, 10 min, 37 °C, amylin 50 μmol L^−1 alone (A) or with 250 μmol L^−1 derivative, pH 7.4, duplicate, p < 0.05 less than A: n1, n5, m5): 2.3 ×10^7 aggregates/mL
concentrations of 100–150, […]–200 and 200–300 nm aggregates at 10 min vs amylin only ([4]; NTA, 10 min, amylin:derivative 50:250 μmol L^−1, unpaired t-test): not significantly different
Concentration of aggregates 100–150 nm, 24 h ([4]; NTA, 24 h, 37 °C, amylin 50 μmol L^−1 alone (A) or with 250 μmol L^−1 derivative, pH 7.4, duplicate, p < 0.05 less than A: n1, n2, m5, significantly more: m2): 1.7 ×10^7 aggregates/mL
Concentration of aggregates 200–300 nm, 24 h ([4]; NTA, 24 h, 37 °C, amylin 50 μmol L^−1 alone (A) or with 250 μmol L^−1 derivative, pH 7.4, duplicate, p < 0.05 less than A: n1, n2, n3, n4, n5, m5): 1.7* ×10^7 aggregates/mL
Concentration of aggregates 150–200 nm, 24 h ([4]; NTA, 24 h, 37 °C, amylin 50 μmol L^−1 alone (A) or with 250 μmol L^−1 derivative, pH 7.4, duplicate, p < 0.05 less than A: n1, n2, n5, m5): 1.8 ×10^7 aggregates/mL
number of 200–300 nm aggregates at 24 h vs amylin only ([4]; NTA, 24 h, amylin:derivative 50:250 μmol L^−1, p < 0.05): significantly lower than in samples containing amylin only
reduction of amylin-mediated cytotoxicity [5]: more than 40%

insulin: insulin, binding to sensor chip-bound biotinylated amylin
response change during binding to biotinylated amylin [6]: 15 RUs
effect on fibril formation [3]: inhibit fibril formation
